Patent US20250262336A1, “[177LU] LUTETIUM-PSMA I&T COMPOSITION AND DOSIMETRY, KIT, METHOD OF MAKING, AND METHOD OF USING THEREOF” (Curium US LLC, priority 2023, published 2025)

Test: Cycle 1 biodistribution: SPECT/CT time-activity curves (fraction of injected activity)
Format: in vivo, human
Conditions: excluding patient 42-030
Procedure: This Example presents the biodistribution, dosimetry, and pharmacokinetics (PK) results of a PK/Dosimetry sub-study performed as part of a Phase III trial. Twenty-seven (27) patients were administered a target activity of 7.4±10% GBq of ^177Lu-PSMA-I&T and underwent single photon emission computed tomography (SPECT)/computed tomography (CT) imaging at four timepoints (4 h, 24 h, 48 h, and 168 h). Image data was analysed to compute time-activity curves (TACs) and subsequently time-integrated activity coefficients (TIACs) in each organ of interest and in organs showing appreciable and meaningful ^177Lu-PSMA-I&T activity. Organ Level Internal Dose Assessment (OLINDA 2.2.3) was used to compute organ and whole body absorbed radiation doses for each patient.
All participating sites underwent a rigorous site setup process during which all dose calibrators, scanners, and gamma counters used in the sub-study were calibrated. Sites were allowed to enroll patients in the sub-study only after the completion and approval of all site setup processes by Invicro. Patients underwent SPECT/CT imaging, with anatomical coverage typically extending from the salivary glands to the pelvis, following the administration of a targeted 7.4±10% GBq of ^177Lu-PSMA-I&T at cycle 1. SPECT/CT imaging was performed at four timepoints: 4 h, 24 h, 48 h, and 168 h post-injection. Additionally, a subset of patients imaged at Cycle 1 (16 out of 27), were also imaged at Cycle 3 (Table 2).
Volume of interest (VOI) (kidneys, bladder, liver, lumbar vertebrae L2-L4, lacrimal glands, salivary glands [parotid and submandibular glands], and whole body) were delineated on each dataset by a trained image analyst. […]
Clearance of the radiopharmaceutical was derived from a data-appropriate fit of each organ's TAC. […] TIACs were calculated through analytical integration of the curve fit extrapolated to infinity. […] The remainder activity was determined by subtracting the cumulative organ TIACs from the whole body TIAC. […]

- whole body activity retention at 4 h, max: 78%
- whole body activity retention at 4 h, min: 24%
- whole body mean activity retention at 4 h: 44%±13%
Structure (SMILES): O=C(O)CC[C@H](NC(=O)N[C@@H](CCCCNC(=O)CCCCCCC(=O)NCCCC[C@@H](NC(=O)[C@@H](Cc1ccccc1)NC(=O)[C@@H](Cc1ccc(O)c(I)c1)NC(=O)CC[C@H](C(=O)O)N1CCN(CC(=O)O)CCN(CC(=O)O)CCN(CC(=O)O)CC1)C(=O)O)C(=O)O)C(=O)O [^177Lu-PSMA-I&T, (3S,7 S,26R,29R,32R,37R)-29-benzyl-32-(4-hydroxy-3-iodobenzyl)-5,13,20,28,31,34-hexaoxo-37-(4,7,10-tris(carboxymethyl)-1,4,7,10-tetraazacyclododecan-1-yl)-4,6,12,21,27,30,33-heptaazaheptatriacontane-1,3,7,26,37-pentacarboxylic acid; lutetium-177 (III), metal not drawn]
